Among the data in patent US20240018120A1, “MAGL INHIBITORS” (H. LUNDBECK A/S, priority 2020, published 2024) are IC50 values, retold here.

This assay concerns the target T1, MAGL (Homo sapiens, UniProt Q99685).
T1 sequence (Q99685 1-303): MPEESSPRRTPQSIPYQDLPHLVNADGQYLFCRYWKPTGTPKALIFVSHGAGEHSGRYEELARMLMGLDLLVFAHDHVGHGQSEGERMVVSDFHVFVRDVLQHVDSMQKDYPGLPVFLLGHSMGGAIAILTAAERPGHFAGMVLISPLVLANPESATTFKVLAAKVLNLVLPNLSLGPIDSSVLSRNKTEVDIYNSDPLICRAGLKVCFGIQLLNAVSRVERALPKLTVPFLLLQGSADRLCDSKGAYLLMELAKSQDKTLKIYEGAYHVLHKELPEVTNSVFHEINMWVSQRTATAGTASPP
Description: In vitro competitive activity-based protein profiling, PC3 human cell membrane proteomes. The class given is biochemical. Set-up: endogenous in cells; host or cells: PC3 human cells (membrane proteome). The note with it: human PC3 membrane proteome. The method, then:
PC3 human cell membrane proteomes (50 μL, 2.0 mg/mL total protein concentration) were preincubated with varying concentrations of inhibitors at 37° C. After 30 min, the ABPP probe JW912-Bodipy (1.0 μL, 50 μM in DMSO) was added and the mixture was incubated for 30 min at room temperature. Reactions were quenched with SDS loading buffer (15 μL-4×) and run on SDS-PAGE. Following gel imaging, serine hydrolase activity was determined by measuring fluorescent intensity of gel bands corresponding to MAGL using ImageJ 1.43u software. Intensities were converted to percent enzyme activity by normalizing to DMSO controls. IC50 values were determined by fitting percent enzyme activities to a non-linear regression, 4-parameter, sigmoidal dose response function in Prism GraphPad.
Compound `O=C(OC(C(F)(F)F)C(F)(F)F)N1CCC2(CC1)CC2C(=O)N1CCOCC1` (single isomer, unassigned) [Example 120, 1,1,1,3,3,3-hexafluoropropan-2-yl (R or S)-1-(morpholine-4-carbonyl)-6-azaspiro[2.5]octane-6-carboxylate] displayed an IC50 of 0.3 µM. Compound `O=C(NC(=O)C1CC12CCN(C(=O)OC(C(F)(F)F)C(F)(F)F)CC2)C1CCOCC1` (single isomer, unassigned) [Example 27, 1,1,1,3,3,3-Hexafluoropropan-2-yl (R or S)-1-((tetrahydro-2H-pyran-4-carbonyl)carbamoyl)-6-azaspiro[2.5]octane-6-carboxylate] had an IC50 of 0.056 µM. In turn, `O=C(Nc1ccccc1)[C@@H]1CC12CCN(C(=O)OC(C(F)(F)F)C(F)(F)F)CC2` (single isomer, unassigned) [Example 142] gave an IC50 of 0.13 µM.

On to `Cn1ccc(NC(=O)C2CC23CCN(C(=O)OC(C(F)(F)F)C(F)(F)F)CC3)n1` (single isomer, unassigned) [Example 126, 1,1,1,3,3,3-hexafluoropropan-2-yl (R or S)-1-((1-methyl-1H-pyrazol-3-yl)carbamoyl)-6-azaspiro[2.5]octane-6-carboxylate], for which the IC50 is 0.23 µM. `O=C(Nc1nccs1)C1CC12CCN(C(=O)OC(C(F)(F)F)C(F)(F)F)CC2` (single isomer, unassigned) [Example 139, 1,1,1,3,3,3-hexafluoropropan-2-yl (R or S)-1-(thiazol-2-ylcarbamoyl)-6-azaspiro[2.5]octane-6-carboxylate] returned an IC50 of 0.11 µM.

Take `CNC(=O)c1ccc(NC(=O)C2CC23CCN(C(=O)OC(C(F)(F)F)C(F)(F)F)CC3)cn1` (single isomer, unassigned) [Example 33, 1,1,1,3,3,3-Hexafluoropropan-2-yl (R or S)-1-((6-(methylcarbamoyl)pyridin-3-yl)carbamoyl)-6-azaspiro[2.5]octane-6-carboxylate]: the IC50 turned out to be 0.0022 µM. The compound `O=C(Nc1ccnnc1)C1CC12CCN(C(=O)OC(C(F)(F)F)C(F)(F)F)CC2` (single isomer, unassigned) [Example 108, 1,1,1,3,3,3-hexafluoropropan-2-yl (R or S)-1-(pyridazin-4-ylcarbamoyl)-6-azaspiro[2.5]octane-6-carboxylate] registered an IC50 of 0.013 µM.

As to `O=C(Nc1ccc(-n2cccn2)nc1)C1CC12CCN(C(=O)OC(C(F)(F)F)C(F)(F)F)CC2` (single isomer, unassigned) [Example 30, 1,1,1,3,3,3-Hexafluoropropan-2-yl (R or S)-1-((6-(1H-pyrazol-1-yl)pyridin-3-yl)carbamoyl)-6-azaspiro[2.5]octane-6-carboxylate], the IC50 was determined as 0.39 µM. This IC50 is about 30-fold higher than that of the compound before. Then `O=C(NC1CC2(COC2)C1)C1CC12CCN(C(=O)OC(C(F)(F)F)C(F)(F)F)CC2` (single isomer, unassigned) [Example 159, 1,1,1,3,3,3-hexafluoropropan-2-yl (R or S)-1-((2-oxaspiro[3.3]heptan-6-yl)carbamoyl)-6-azaspiro[2.5]octane-6-carboxylate], with 0.043 µM.

For the compound `O=C(NCc1cccnn1)C1CC12CCN(C(=O)OC(C(F)(F)F)C(F)(F)F)CC2` (single isomer, unassigned) [Example 157], the IC50 was determined as 0.23 µM. As for `O=C(Nc1cnoc1)[C@@H]1CC12CCN(C(=O)OC(C(F)(F)F)C(F)(F)F)CC2` (single isomer, unassigned) [Example 15], the figure is 1 µM; as for `COc1ccc(NC(=O)[C@@H]2CC23CCN(C(=O)OC(C(F)(F)F)C(F)(F)F)CC3)cn1` (single isomer, unassigned) [Example 36], 0.0051 µM. Turning to `O=C(Nc1cccc(F)c1)C1CC12CCN(C(=O)OC(C(F)(F)F)C(F)(F)F)CC2` (single isomer, unassigned) [Example 147, 1,1,1,3,3,3-hexafluoropropan-2-yl (R or S)-1-((3-fluorophenyl)carbamoyl)-6-azaspiro[2.5]octane-6-carboxylate], the IC50 was 0.0018 µM. Then `O=C(NC1CCOCC1)[C@@H]1CC12CCN(C(=O)OC(C(F)(F)F)C(F)(F)F)CC2` [Example 9, 1,1,1,3,3,3-Hexafluoropropan-2-yl (R)-1-((tetrahydro-2H-pyran-4-yl)carbamoyl)-6-azaspiro[2.5]octane-6-carboxylate], with 0.727 µM; and `Cc1ncc(NC(=O)C2CC23CCN(C(=O)OC(C(F)(F)F)C(F)(F)F)CC3)cn1` (single isomer, unassigned) [Example 102, 1,1,1,3,3,3-hexafluoropropan-2-yl (R or S)-1-((2-methylpyrimidin-5-yl)carbamoyl)-6-azaspiro[2.5]octane-6-carboxylate], with 0.15 µM. Then `Cc1cnc(NC(=O)C2CC23CCN(C(=O)OC(C(F)(F)F)C(F)(F)F)CC3)cn1` (single isomer, unassigned) [Example 111, 1,1,1,3,3,3-hexafluoropropan-2-yl (R or S)-1-((5-methylpyrazin-2-yl)carbamoyl)-6-azaspiro[2.5]octane-6-carboxylate], with 0.074 µM; and `CC(=O)Nc1ccc(NC(=O)C2CC23CCN(C(=O)OC(C(F)(F)F)C(F)(F)F)CC3)cn1` (single isomer, unassigned) [Example 172, 1,1,1,3,3,3-hexafluoropropan-2-yl (R or S)-1-((6-acetamidopyridin-3-yl)carbamoyl)-6-azaspiro[2.5]octane-6-carboxylate], with 0.13 µM. `CP(C)(=O)c1ccc(NC(=O)C2CC23CCN(C(=O)OC(C(F)(F)F)C(F)(F)F)CC3)cn1` (single isomer, unassigned) [Example 21, 1,1,1,3,3,3-Hexafluoropropan-2-yl (R or S)-1-((6-(dimethylphosphoryl)pyridin-3-yl)carbamoyl)-6-azaspiro[2.5]octane-6-carboxylate] gave an IC50 of 0.317 µM. Against the preceding compound, the IC50 is about 2.4-fold higher. As for `O=C(Nc1ccncc1)C1CC12CCN(C(=O)OC(C(F)(F)F)C(F)(F)F)CC2` (single isomer, unassigned) [Example 23, 1,1,1,3,3,3-Hexafluoropropan-2-yl (R or S)-1-(pyridin-4-ylcarbamoyl)-6-azaspiro[2.5]octane-6-carboxylate], the IC50 is 0.2 µM. `O=C(NCc1cncnc1)C1CC12CCN(C(=O)OC(C(F)(F)F)C(F)(F)F)CC2` (single isomer, unassigned) [Example 153, 1,1,1,3,3,3-hexafluoropropan-2-yl (R or S)-1-((pyrimidin-5-ylmethyl)carbamoyl)-6-azaspiro[2.5]octane-6-carboxylate] yielded an IC50 of 0.077 µM. Then `CN1CCC(NC(=O)C2CC23CCN(C(=O)OC(C(F)(F)F)C(F)(F)F)CC3)CC1` (single isomer, unassigned) [Example 114, 1,1,1,3,3,3-hexafluoropropan-2-yl (R or S)-1-((1-methylpiperidin-4-yl)carbamoyl)-6-azaspiro[2.5]octane-6-carboxylate], with 2.6 µM; and `CN1CCC(NC(=O)C2CC23CCN(C(=O)OC(C(F)(F)F)C(F)(F)F)CC3)CC1` (single isomer, unassigned) [Example 115, 1,1,1,3,3,3-hexafluoropropan-2-yl (R or S)-1-((1-methylpiperidin-4-yl)carbamoyl)-6-azaspiro[2.5]octane-6-carboxylate], with 0.56 µM; and `O=C(NC(=O)C1CC12CCN(C(=O)OC(C(F)(F)F)C(F)(F)F)CC2)C1CCOCC1` (single isomer, unassigned) [Example 26, 1,1,1,3,3,3-Hexafluoropropan-2-yl (R or S)-1-((tetrahydro-2H-pyran-4-carbonyl)carbamoyl)-6-azaspiro[2.5]octane-6-carboxylate], with 0.016 µM. As for `O=C(NC1CC2(COC2)C1)C1CC12CCN(C(=O)OC(C(F)(F)F)C(F)(F)F)CC2` (single isomer, unassigned) [Example 160, 1,1,1,3,3,3-hexafluoropropan-2-yl (R or S)-1-((2-oxaspiro[3.3]heptan-6-yl)carbamoyl)-6-azaspiro[2.5]octane-6-carboxylate], the figure is 0.59 µM; as for `O=C(NCC1CCOCC1)[C@@H]1CC12CCN(C(=O)OC(C(F)(F)F)C(F)(F)F)CC2` (single isomer, unassigned) [Example 118], 0.29 µM. For `O=C(NCc1cncnc1)C1CC12CCN(C(=O)OC(C(F)(F)F)C(F)(F)F)CC2` (single isomer, unassigned) [Example 154, 1,1,1,3,3,3-hexafluoropropan-2-yl (R or S)-1-((pyrimidin-5-ylmethyl)carbamoyl)-6-azaspiro[2.5]octane-6-carboxylate], the IC50 came to 0.86 µM. As for `O=C(Nc1ccc(C2CC2)nc1)[C@@H]1CC12CCN(C(=O)OC(C(F)(F)F)C(F)(F)F)CC2` (single isomer, unassigned) [Example 162], the figure is 0.16 µM.
